Experimental data from ChEMBL document CHEMBL1129135, “Synthesis and antitumor evaluation of paclitaxel phosphonooxymethyl ethers: a novel class of water soluble paclitaxel pro-drugs” (1996).

What was measured:
Assay type in all cases: functional
Settings in all cases: route intraperitoneal
Mus musculus [1] = experiment: Compound was tested in vivo for its efficacy against the M109 murine tumor model at the dose of 200 mg/kg/inj after ip administration
Mus musculus [2] = experiment: Compound was tested in vivo for its efficacy against the M109 murine tumor model at the dose of 60 mg/kg/injection after ip administration (Data reported with reference to Paclitaxel)
Mus musculus [3] = experiment: Compound was tested in vivo for its efficacy against the M109 murine tumor model at the dose of 44 mg/kg/injection after ip administration (Data reported with reference to Paclitaxel)
Mus musculus [4] = experiment: Compound was tested in vivo for its efficacy against the M109 murine tumor model at the dose of 64 mg/kg/injection after ip administration

Row | SMILES | T/C (Mus musculus [1]) | T/C (Mus musculus [2]) | T/C (Mus musculus [3]) | T/C (Mus musculus [4])
1 | CC(=O)O[C@H]1C(=O)[C@@]2(C)[C@H]([C@H](OC(=O)c3ccccc3)[C@]3(O)C[C@H](OC(=O)[C@H](OCOP(=O)(O)O)[C@@H](NC(=O)c4ccccc4)c4ccccc4)C(C)=C1C3(C)C)[C@]1(OC(C)=O)CO[C@@H]1C[C@@H]2O | 144% | 237% |  | 
2 | CCOC(=O)O[C@@H](C(=O)O[C@H]1C[C@@]2(O)[C@@H](OC(=O)c3ccccc3)[C@@H]3[C@]4(OC(C)=O)CO[C@@H]4C[C@H](OCOP(=O)(O)O)[C@@]3(C)C(=O)[C@H](OC(C)=O)C(=C1C)C2(C)C)[C@@H](NC(=O)c1ccccc1)c1ccccc1 |  |  | 175% | 188%
